The results in this text go back to the supplement of paper PMC7661543.

Holding throughout (experiment): relative cell number vs DMSO control (72 h) (% of DMSO); higher = less growth inhibition (more cells)
What all share (details): sgRNA knockout: sgNT

One assay deals with BT-20. As to the method: (§1)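 QMAP-Seq: a pool of 5 breast cancer cell lines (ZR-75-1, SKBR3, HCC-38, MDA-MB-231, BT-20), each carrying 12 doxycycline-inducible Cas9 sgRNA perturbations (11 knockouts plus non-targeting sgNT), was treated with compounds for 72 h at four 10-fold doses (10 nM-10 uM or 1 nM-1 uM range). Barcodes were amplified and sequenced, and cell number was interpolated from 293T spike-in standard curves. The result is expressed as % of the median of DMSO wells. Two biological replicates.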

A further assay concerns HCC-38. As to the method: as §1
For a further assay, the system named is MDA-MB-231. As to the method:
as §1

The next assay concerns SKBR3. As to the method:
as §1

A further assay has as its system ZR-75-1. As to the method: as §1

SMILES strings stand for the structures. ± gives the standard deviation of the averaged measurements.

Consider `Nc1nc(Cl)nc2c1ncn2[C@@H]1O[C@H](CO)[C@@H](O)[C@@H]1F` [Clofarabine], for which the relative cell number in the assay with BT-20 (10 nM) is 103 ± 44; in the assay with BT-20 (100 nM), 73.9 ± 4.4; in the assay on BT-20 (1000 nM), 27 ± 2.8; in the assay on BT-20 (10000 nM), 26.5 ± 1.5; in the assay on HCC-38 (10 nM), 98.6 ± 18; with HCC-38 (100 nM) it was 25.9 ± 0.79. For the same compound, the relative cell number came out at 12.6 ± 1.4 in the assay on HCC-38 (1000 nM); 12.4 ± 6.4 with HCC-38 (10000 nM); 82.8 ± 26 in the assay on MDA-MB-231 (10 nM); 30 ± 7.7 in the assay with MDA-MB-231 (100 nM); 12 ± 1.1 in the assay on MDA-MB-231 (1000 nM); 22.7 ± 0.75 in the assay on MDA-MB-231 (10000 nM). For the same compound, the relative cell number in the assay with SKBR3 (10 nM) came out at 65.5 ± 37; in the assay on SKBR3 (100 nM) it was 45.5 ± 1.9; with SKBR3 (1000 nM), 10.2 ± 1.7; in the assay on SKBR3 (10000 nM) it was 8.24 ± 1.4; in the assay on ZR-75-1 (10 nM), 72.7 ± 31; in the assay with ZR-75-1 (100 nM), 63.6 ± 9.1. The figures for the relative cell number in the assay with ZR-75-1 (1000 nM) and in the assay on ZR-75-1 (10000 nM) were 22.1 ± 3.6 and 25.4 ± 15, respectively.
Consider `CC(=O)Nc1nc(C)c(S(=O)(=O)Nc2ccc(C(O)(C(F)(F)F)C(F)(F)F)cc2)s1` [SR1001], for which the relative cell number in the assay with BT-20 (10 nM) worked out at 111 ± 12; in the assay with BT-20 (100 nM) it was 92.4 ± 17; in the assay on BT-20 (1000 nM) it was 97.8 ± 18; in the assay on BT-20 (10000 nM), 116 ± 32; in the assay with HCC-38 (10 nM), 91.5 ± 2.2; with HCC-38 (100 nM), 105 ± 5.6. The relative cell number in the assay with HCC-38 (1000 nM) was 111.7 ± 0.68; with HCC-38 (10000 nM), 109 ± 16; in the assay with MDA-MB-231 (10 nM), 117 ± 5.5; in the assay on MDA-MB-231 (100 nM) it was 123 ± 15; in the assay on MDA-MB-231 (1000 nM) it was 106 ± 12; with MDA-MB-231 (10000 nM), 118 ± 29. The relative cell number with SKBR3 (10 nM) was 104 ± 4.2; in the assay with SKBR3 (100 nM), 87.5 ± 13; with SKBR3 (1000 nM), 120 ± 17; in the assay with SKBR3 (10000 nM) it was 121 ± 3.7; in the assay on ZR-75-1 (10 nM), 108 ± 41; with ZR-75-1 (100 nM), 80.6 ± 15. The relative cell number in the assay on ZR-75-1 (1000 nM) worked out at 82.9 ± 26; with ZR-75-1 (10000 nM), 113 ± 64.
Turning to `C=CC[C@@H]1/C=C(\C)C[C@H](C)C[C@H](OC)[C@H]2O[C@@](O)(C(=O)C(=O)N3CCCC[C@H]3C(=O)O[C@H](/C(C)=C/[C@@H]3CC[C@@H](O)[C@H](OC)C3)[C@H](C)[C@@H](O)CC1=O)[C@H](C)C[C@@H]2OC` [Tacrolimus], the relative cell number in the assay with BT-20 (10 nM) was determined as 110 ± 2.2; in the assay on BT-20 (100 nM), 105 ± 4.6; with BT-20 (1000 nM) it was 101 ± 16; with BT-20 (10000 nM) it was 120 ± 26; in the assay with HCC-38 (10 nM) it was 117 ± 8.4; in the assay with HCC-38 (100 nM), 99.57 ± 0.7. Further, the relative cell number is 115 ± 14 in the assay with HCC-38 (1000 nM); 114 ± 5.7 in the assay on HCC-38 (10000 nM); 133 ± 27 in the assay on MDA-MB-231 (10 nM); 106 ± 7.6 with MDA-MB-231 (100 nM); 96.7 ± 7 in the assay on MDA-MB-231 (1000 nM); 135 ± 12 with MDA-MB-231 (10000 nM). For the same compound, the relative cell number in the assay with SKBR3 (10 nM) was 108 ± 22; with SKBR3 (100 nM), 90.6 ± 11; with SKBR3 (1000 nM) it was 101 ± 17; with SKBR3 (10000 nM), 128.1 ± 0.39; in the assay with ZR-75-1 (10 nM), 108 ± 7.9; with ZR-75-1 (100 nM) it was 91.5 ± 29. In addition, the results for the relative cell number in the assay on ZR-75-1 (1000 nM) and in the assay on ZR-75-1 (10000 nM) were 85.6 ± 18 and 92.8 ± 28, respectively.
As to `Cc1nc(Nc2n[nH]c3c2CN(C(=O)N[C@H](CN(C)C)c2ccccc2)C3(C)C)c2sccc2n1`, the relative cell number came out at 77.3 ± 21 in the assay on BT-20 (10 nM); 46 ± 2.4 with BT-20 (100 nM); 31.8 ± 6.6 with BT-20 (1000 nM); 11.6 ± 6.4 with BT-20 (10000 nM); 64.9 ± 5 with HCC-38 (10 nM); 54.5 ± 3.9 in the assay with HCC-38 (100 nM). In addition, the relative cell number is 31.5 ± 1.2 in the assay with HCC-38 (1000 nM); 13.5 ± 5.3 in the assay with HCC-38 (10000 nM); 35.5 ± 11 in the assay on MDA-MB-231 (10 nM); 27.3 ± 6.1 with MDA-MB-231 (100 nM); 13.4 ± 6.6 in the assay on MDA-MB-231 (1000 nM); 4.59 ± 3.4 with MDA-MB-231 (10000 nM). For the same compound, the relative cell number in the assay with SKBR3 (10 nM) was 60.9 ± 22; in the assay with SKBR3 (100 nM), 52.5 ± 9; in the assay on SKBR3 (1000 nM), 21.3 ± 0.55; with SKBR3 (10000 nM), 3.5 ± 2.2; in the assay on ZR-75-1 (10 nM), 40.4 ± 14; in the assay with ZR-75-1 (100 nM) it was 49.8 ± 19. For the same compound, the relative cell number with ZR-75-1 (1000 nM) is 25.6 ± 4.3; with ZR-75-1 (10000 nM), 3.38 ± 1.2.
For `NC(=O)Nc1sc(-c2ccc(F)cc2)cc1C(N)=O` [TPCA1], the relative cell number in the assay with BT-20 (10 nM) was 119 ± 19; in the assay on BT-20 (100 nM), 101 ± 34; in the assay with BT-20 (1000 nM) it was 102.8 ± 0.57; in the assay with BT-20 (10000 nM), 69.2 ± 3.1; in the assay with HCC-38 (10 nM) it was 90.2 ± 2.3; with HCC-38 (100 nM) it was 94.5 ± 5.5. For the same compound, the relative cell number in the assay with HCC-38 (1000 nM) worked out at 100 ± 6.1; in the assay with HCC-38 (10000 nM) it was 74.1 ± 4.5; in the assay with MDA-MB-231 (10 nM) it was 111 ± 21; in the assay on MDA-MB-231 (100 nM) it was 127 ± 23; with MDA-MB-231 (1000 nM), 130 ± 4.7; with MDA-MB-231 (10000 nM) it was 69.6 ± 7.9. Moreover, the relative cell number with SKBR3 (10 nM) was 92.2 ± 32; in the assay with SKBR3 (100 nM), 93.1 ± 17; with SKBR3 (1000 nM), 102 ± 8.7; in the assay with SKBR3 (10000 nM) it was 54.5 ± 1.1; in the assay with ZR-75-1 (10 nM) it was 104 ± 42; in the assay with ZR-75-1 (100 nM), 94.7 ± 6. In addition, the relative cell number in the assay on ZR-75-1 (1000 nM) amounted to 99.5 ± 6.5; with ZR-75-1 (10000 nM) it was 43.1 ± 5.7.
For the compound `C[C@H]1CCC/C=C/[C@@H]2C[C@H](O)C[C@H]2[C@H](O)/C=C/C(=O)O1` [BrefeldinA], the relative cell number with BT-20 (10 nM) is 84.9 ± 25; with BT-20 (100 nM) it was 25.6 ± 6.2; in the assay on BT-20 (1000 nM) it was 31.1 ± 3.5; in the assay with BT-20 (10000 nM), 31.5 ± 9.4; with HCC-38 (10 nM), 92.1 ± 16; with HCC-38 (100 nM) it was 54.8 ± 7.7. Besides, the relative cell number with HCC-38 (1000 nM) was 35.3 ± 11; in the assay on HCC-38 (10000 nM), 23.6 ± 7.5; with MDA-MB-231 (10 nM) it was 108 ± 22; with MDA-MB-231 (100 nM), 14.1 ± 7.9; in the assay on MDA-MB-231 (1000 nM), 7.55 ± 2.6; in the assay on MDA-MB-231 (10000 nM) it was 9.31 ± 2.6. The relative cell number is 89.9 ± 43 in the assay with SKBR3 (10 nM); 17.7 ± 11 in the assay on SKBR3 (100 nM); 5.96 ± 2.5 in the assay with SKBR3 (1000 nM); 6.07 ± 0.93 with SKBR3 (10000 nM); 86.8 ± 14 in the assay on ZR-75-1 (10 nM); 18.7 ± 2.6 in the assay with ZR-75-1 (100 nM). Besides, the relative cell number with ZR-75-1 (1000 nM) was 8.03 ± 3.4; in the assay with ZR-75-1 (10000 nM), 5.82 ± 3.4.
